Biological target: T1, soluble guanylate cyclase (Homo sapiens, UniProt Q02153)
T1 construct: expressed in transfected cells
Experiment: CHO cellular assay (cGMP production, Cisbio cGMP HTRF)
Assay type: cell-based
Settings: CHO K1 cells overexpressing human GUCYA3/GUCYB3 (clone 8E10), 1 mM IBMX, 20 uM ODQ, 1 h room temperature, listed 0.5 nM means actual EC50 ≤0.5 nM (quantification limit)
Text: Chinese hamster ovary (CHO) cells overexpressing soluble guanylate cyclase were generated to test the effect of sGC activators in a cellular context. Human cDNAs for GUCYA3 (RefSeq: NM_000856.3) and GUCYB3 (RefSeq: NM_000857.1) were amplified by PCR from a HUVEC (Human Umbilical Vein Endothelial Cells) cDNA library and cloned into mammalian expression vectors. CHO K1 cells (ATCC CCL-61) were transfected using Lipofectamine 2000 following manufacturer's instructions and stably expressing clones were identified by antibiotic selection. CHO GUCY clone 8E10 was used for subsequent experiments.
Cells were seeded at a density of 3000 cells/well in white 384-well proxyplates (Perkin Elmer) and incubated overnight, then the medium was removed and cells were washed with assay buffer (HBSS, 0.1% BSA, 1 mM IBMX, 20 uM ODQ). sGC activators were serially diluted in DMSO, then diluted in assay buffer prior to adding to cells (10 ul/well, final DMSO concentration 0.5%). Cells were incubated with compounds for 1 h room temperature, then assayed for cGMP production using Cisbio cGMP HTRF kit (62GM2PEC) according to manufacturer's instructions.
The EC50s are calculated based on the amount of cGMP interpolated from the standard curve, using a 4-parameter sigmoidal dose-response.
Compounds of invention are active on sGC activation. Data on Table 1 collected using the assay of Biological Example 1. The minimum EC50 quantification limit of the assay is 0.5 nM, therefore any compound listed as having an EC50 value of 0.5 nM has a actual EC50 of ≤0.5 nM.

T1 sequence (Q02108 whole entry partner): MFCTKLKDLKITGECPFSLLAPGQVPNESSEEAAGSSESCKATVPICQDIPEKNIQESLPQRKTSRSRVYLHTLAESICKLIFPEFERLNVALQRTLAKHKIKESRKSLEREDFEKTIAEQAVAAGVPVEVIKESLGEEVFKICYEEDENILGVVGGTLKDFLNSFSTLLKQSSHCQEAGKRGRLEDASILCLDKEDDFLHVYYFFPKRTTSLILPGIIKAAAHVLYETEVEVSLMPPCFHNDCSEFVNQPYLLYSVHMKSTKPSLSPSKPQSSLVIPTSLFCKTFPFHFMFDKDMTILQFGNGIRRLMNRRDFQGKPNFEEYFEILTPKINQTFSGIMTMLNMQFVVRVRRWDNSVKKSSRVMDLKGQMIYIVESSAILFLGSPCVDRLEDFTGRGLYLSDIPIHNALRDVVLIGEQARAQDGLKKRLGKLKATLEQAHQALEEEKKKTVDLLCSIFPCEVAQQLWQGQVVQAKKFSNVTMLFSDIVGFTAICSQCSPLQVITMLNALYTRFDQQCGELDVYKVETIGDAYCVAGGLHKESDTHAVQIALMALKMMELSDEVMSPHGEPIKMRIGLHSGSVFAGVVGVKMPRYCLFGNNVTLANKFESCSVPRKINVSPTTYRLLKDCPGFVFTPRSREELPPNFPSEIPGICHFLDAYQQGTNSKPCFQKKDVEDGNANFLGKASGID
T1 sequence (Q02153 whole entry): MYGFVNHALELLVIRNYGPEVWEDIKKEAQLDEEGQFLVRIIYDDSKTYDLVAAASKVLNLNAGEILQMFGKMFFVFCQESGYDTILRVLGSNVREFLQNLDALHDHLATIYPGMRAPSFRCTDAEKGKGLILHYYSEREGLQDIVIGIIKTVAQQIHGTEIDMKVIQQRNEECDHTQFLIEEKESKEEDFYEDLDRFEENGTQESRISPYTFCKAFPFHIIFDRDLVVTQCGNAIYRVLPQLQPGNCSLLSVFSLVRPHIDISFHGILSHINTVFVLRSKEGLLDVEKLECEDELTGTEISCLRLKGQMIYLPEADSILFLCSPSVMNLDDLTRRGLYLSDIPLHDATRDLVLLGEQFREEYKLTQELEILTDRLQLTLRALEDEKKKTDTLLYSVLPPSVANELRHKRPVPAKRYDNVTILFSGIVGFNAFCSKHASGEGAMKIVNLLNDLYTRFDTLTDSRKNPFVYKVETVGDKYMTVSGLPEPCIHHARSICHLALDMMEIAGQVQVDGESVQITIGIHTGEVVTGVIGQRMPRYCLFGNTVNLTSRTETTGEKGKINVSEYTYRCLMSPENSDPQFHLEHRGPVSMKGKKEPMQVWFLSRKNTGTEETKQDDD

Row | EC50 [nM] | Compound
1 | 1 | CCc1cc(OCC2=C(c3cccc(-n4ncc(C(=O)O)c4C(F)(F)F)n3)CCC2C)ccc1C1CCN(C(=O)C2CC2)CC1 (single isomer, unassigned; (+)) [Example 22(b) (+), (+)-1-(6-(2-((4-(1-(cyclopropanecarbonyl)piperidin-4-yl)-3-ethylphenoxy)methyl)-3-methylcyclopent-1-en-1-yl)pyridin-2-yl)-5-(trifluoromethyl)-1H-pyrazole-4-carboxylic acid]
2 | 1 | Cc1cc(C2CCN(S(C)(=O)=O)CC2)ccc1OCC1=C(c2cccc(-n3ncc(C(=O)O)c3C(F)(F)F)n2)CCCC1 [Example 2-3, 1-(6-(2-((2-methyl-4-(1-(methylsulfonyl)piperidin-4-yl)phenoxy)methyl)cyclohex-1-en-1-yl)pyridin-2-yl)-5-(trifluoromethyl)-1H-pyrazole-4-carboxylic acid]
3 | 2.4 | Cc1cc(C2CCN(C(=O)CO)CC2)ccc1OCC1=C(c2cccc(-n3ncc(C(=O)O)c3C(F)(F)F)n2)CCCC1 [Example 2-5, 1-(6-(2-((4-(1-(2-hydroxyacetyl)piperidin-4-yl)-2-methylphenoxy)methyl)cyclohex-1-en-1-yl)pyridin-2-yl)-5-(trifluoromethyl)-1H-pyrazole-4-carboxylic acid]
4 | 2.8 | Cc1cc(C2CCN(CC(F)(F)F)CC2)ccc1OCC1=C(c2cccc(-n3ncc(C(=O)O)c3C(F)(F)F)n2)CCCC1 [Example 6-1, 1-(6-(2-((2-methyl-4-(1-(2,2,2-trifluoroethyl)piperidin-4-yl)phenoxy)methyl)cyclohex-1-en-1-yl)pyridin-2-yl)-5-(trifluoromethyl)-1H-pyrazole-4-carboxylic acid]
5 | 2.4 | Cc1cc(C2CCN(S(C)(=O)=O)CC2)ccc1OCC1=C(c2cccc(-n3ncc(C(=O)O)c3C(F)(F)F)n2)CCC1 [Example 24-4, 1-(6-(2-((2-Methyl-4-(1-(methylsulfonyl)piperidin-4-yl)phenoxy)methyl)cyclopent-1-en-1-yl)pyridin-2-yl)-5-(trifluoromethyl)-1H-pyrazole-4-carboxylic acid]
6 | ≤ 0.5 | CCC(=O)N1CCC(c2ccc(OCC3=C(c4cccc(-n5ncc(C(=O)O)c5C(F)(F)F)n4)CCCC3)c(C)c2)CC1 [Example 2-1, 1-(6-(2-((2-methyl-4-(1-propionylpiperidin-4-yl)phenoxy)methyl)cyclohex-1-en-1-yl)pyridin-2-yl)-5-(trifluoromethyl)-1H-pyrazole-4-carboxylic acid]
7 | 420 | O=C(O)c1cnn(-c2cccc(C3=C(COc4ccc([C@H]5CCN(C(=O)C6CC6)C[C@@H]5O)cc4)CCCC3)n2)c1C(F)(F)F (racemic) [Example 29-2, (±)-1-(6-(2-((4-((3,4-trans)-1-(cyclopropanecarbonyl)-3-hydroxypiperidin-4-yl)phenoxy)methyl)cyclohex-1-en-1-yl)pyridin-2-yl)-5-(trifluoromethyl)-1H-pyrazole-4-carboxylic acid]
8 | ≤ 0.5 | Cc1cc(C2CCN(C(=O)C3CC3)CC2)ccc1OCC1=C(c2cccc(-n3ncc(C(=O)O)c3C(F)(F)F)n2)CC(C)CC1 (single isomer, unassigned; (+)) [Example 12 (+), (+)-1-(6-(2-((4-(1-(cyclopropanecarbonyl)piperidin-4-yl)-2-methylphenoxy)methyl)-5-methylcyclohex-1-en-1-yl)pyridin-2-yl)-5-(trifluoromethyl)-1H-pyrazole-4-carboxylic acid]
9 | 22 | Cc1cc(C2CCN(C(=O)C3CC3)CC2)ccc1OCC1=C(c2cccc(-n3ncc(C(=O)O)c3C(F)(F)F)c2)CC(C)CC1 (racemic) [Example 28, (±)-1-(6′-((4-(1-(Cyclopropanecarbonyl)piperidin-4-yl)-2-methylphenoxy)methyl)-3′-methyl-2′,3′,4′,5′-tetrahydro-[1,1-biphenyl]-3-yl)-5-(trifluoromethyl)-1H-pyrazole-4-carboxylic acid]
10 | 5.5 | CCc1cc(C2CCN(C(=O)C3CC3)CC2)ccc1OCC1=C(c2cccc(-n3ncc(C(=O)O)c3C(F)(F)F)n2)CCCC1 [Example 8-1, 1-(6-(2-((4-(1-(cyclopropanecarbonyl)piperidin-4-yl)-2-ethylphenoxy)methyl)cyclohex-1-en-1-yl)pyridin-2-yl)-5-(trifluoromethyl)-1H-pyrazole-4-carboxylic acid]
11 | 10 | Cc1cccc(CN2CCc3cc(OCC4=C(c5cccc(-n6ncc(C(=O)O)c6C(F)(F)F)n5)CCCC4)ccc3C2)n1 [Example 5, 1-(6-(2-(((2-((6-Methylpyridin-2-yl)methyl)-1,2,3,4-tetrahydroisoquinolin-6-yl)oxy)methyl)cyclohex-1-en-1-yl)pyridin-2-yl)-5-(trifluoromethyl)-1H-pyrazole-4-carboxylic acid]
12 | 1 | Cc1cc(C2CCN(C(=O)C3CC3)CC2)ccc1OCC1=C(c2cccc(-n3ncc(C(=O)O)c3C(F)(F)F)n2)CCCC1C (single isomer, unassigned; (-)) [Example 15b, (−)-1-(6-(2-((4-(1-(Cyclopropanecarbonyl)piperidin-4-yl)-2-methylphenoxy)methyl)-3-methylcyclohex-1-en-1-yl)pyridin-2-yl)-5-(trifluoromethyl)-1H-pyrazole-4-carboxylic acid]
13 | ≤ 0.5 | Cc1cc(C2CCN(C(=O)C(C)C)CC2)ccc1OCC1=C(c2cccc(-n3ncc(C(=O)O)c3C(F)(F)F)n2)CCCC1 [Example 2-10, 1-(6-(2-((4-(1-isobutyrylpiperidin-4-yl)-2-methylphenoxy)methyl)cyclohex-1-en-1-yl)pyridin-2-yl)-5-(trifluoromethyl)-1H-pyrazole-4-carboxylic acid]
14 | ≤ 0.5 | CCc1cc(OCC2=C(c3cccc(-n4ncc(C(=O)O)c4C)n3)CCCC2C)ccc1C1CCN(C(=O)C2CC2)CC1 (single isomer, unassigned; (+)) [Example 16a, (+)-1-(6-(2-((4-(1-(Cyclopropanecarbonyl)piperidin-4-yl)-3-ethylphenoxy)methyl)-3-methylcyclohex-1-en-1-yl)pyridin-2-yl)-5-methyl-1H-pyrazole-4-carboxylic acid]
15 | 2.4 | CCC(=O)N1CCC(c2ccc(OCC3=C(c4cccc(-n5ncc(C(=O)O)c5C(F)(F)F)n4)CCC3)c(C)c2)CC1 [Example 24-2, 1-(6-(2-((2-Methyl-4-(1-propionylpiperidin-4-yl)phenoxy)methyl)cyclopent-1-en-1-yl)pyridin-2-yl)-5-(trifluoromethyl)-1H-pyrazole-4-carboxylic acid]
16 | 1 | Cc1cc(C2CCN(C(=O)C3CCC3)CC2)ccc1OCC1=C(c2cccc(-n3ncc(C(=O)O)c3C(F)(F)F)n2)CCCC1 [Example 2-11, 1-(6-(2-((4-(1-(cyclobutanecarbonyl)piperidin-4-yl)-2-methylphenoxy)methyl)cyclohex-1-en-1-yl)pyridin-2-yl)-5-(trifluoromethyl)-1H-pyrazole-4-carboxylic acid]
17 | ≤ 0.5 | CCc1c(C(=O)O)cnn1-c1cccc(C2=C(COc3ccc(C4CCN(C(=O)C5CC5)CC4)cc3C)CCCC2)n1 [Example 9, 1-(6-(2-((4-(1-(Cyclopropanecarbonyl)piperidin-4-yl)-2-methylphenoxy)methyl)cyclohex-1-en-1-yl)pyridin-2-yl)-5-ethyl-1H-pyrazole-4-carboxylic acid]
18 | 1.4 | CCc1cc(OCC2=C(c3cccc(-n4ncc(C(=O)O)c4CC)n3)CCCC2C)ccc1C1CCN(C(=O)C2CC2)CC1 (single isomer, unassigned; (-)) [Example 17b, (−)-1-(6-(2-((4-(1-(Cyclopropanecarbonyl)piperidin-4-yl)-3-ethylphenoxy)methyl)-3-methylcyclohex-1-en-1-yl)pyridin-2-yl)-5-ethyl-1H-pyrazole-4-carboxylic acid]
19 | 3.9 | CC1CCCC(c2cccc(-n3ncc(C(=O)O)c3C(F)(F)F)n2)=C1COc1ccc2c(c1)CCN(Cc1ccccn1)C2 (racemic) [Example 29-1, (±)-1-(6-(3-Methyl-2-(((2-(pyridin-2-ylmethyl)-1,2,3,4-tetrahydroisoquinolin-6-yl)oxy)methyl)cyclohex-1-en-1-yl)pyridin-2-yl)-5-(trifluoromethyl)-1H-pyrazole-4-carboxylic acid]
20 | ≤ 0.5 | Cc1cc(C2CCN(C(=O)[C@H](C)O)CC2)ccc1OCC1=C(c2cccc(-n3ncc(C(=O)O)c3C(F)(F)F)n2)CCCC1 [Example 3, (S)-1-(6-(2-((4-(1-(2-hydroxypropanoyl)piperidin-4-yl)-2-methylphenoxy)methyl)cyclohex-1-en-1-yl)pyridin-2-yl)-5-(trifluoromethyl)-1H-pyrazole-4-carboxylic acid]
21 | 3 | CCc1cc(OCC2=C(c3cccc(-n4ncc(C(=O)O)c4C)n3)CCCC2C)ccc1C1CCN(C(=O)C2CC2)CC1 (single isomer, unassigned; (-)) [Example 16b, (−)-1-(6-(2-((4-(1-(Cyclopropanecarbonyl)piperidin-4-yl)-3-ethylphenoxy)methyl)-3-methylcyclohex-1-en-1-yl)pyridin-2-yl)-5-methyl-1H-pyrazole-4-carboxylic acid]
